Data taken from patent publication US7928098B2, “Therapeutic and/or preventive agents for a sleep disorder” (Kyowa Hakko Kirin Co., Ltd., priority 2005, dated 2011).

Key:
[1] = system: ddY male mice; experiment: Effect on pentobarbital sodium-induced sleeping time (loss of righting reflex); type: in vivo; settings: test compound 10 mg/kg p.o. one hour before pentobarbital-Na 25 mg/kg s.c.
Protocol: The test was conducted to examine influence of Compound (I) of the present invention on pentobarbital sodium-induced sleeping time, according to the method of Iyakuhin no Kaihatsu, Vol. 9, Iyakuhin no Tansaku I, “antihypnotic”, p. 220-226, Hirokawa Shoten.
For the test, ddY male mice (19-21 g body weight; Japan SLC, Inc.) were used. All test compounds were used by suspending in distilled water (Otsuka Pharmaceutical Factory, Inc.) containing 0.5 volume/weight % methylcellulose (0.5% MC: Wako Pure Chemical Industries, Ltd.). A volume of 0.1 mL was administered per 10 g body weight of mice.
Groups of seven mice were used. To the control groups were orally administrated 0.5% MC, whereas a suspension of the test compound was orally administered to the test compound administered groups. One hour after the administration, pentobarbital sodium (pentobarbital-Na: Tokyo Chemical Industry Co., Ltd., 25 mg/kg) was administered subcutaneously. Mouse placed in a recumbent position, the mouse immediately returns to a proper upright position (this is known as righting reflex). However, the administration of pentobarbital sodium eliminated the righting reflex in the control groups. The time period in which the administration of […] eliminated the righting reflex was regarded as a sleeping time. By a measurement of time disappearing righting reflex immediately after the administration, the sleeping time was determined.

[2] = Table 5-1, groups of seven, controls 52.12 ± 5.20 (r5) and 35.56 ± 5.21 (r11)
[3] = Table 5-2, groups of seven, controls 40.00 ± 5.32 (r5) and 45.87 ± 4.17 (r12)

| melting point | Structure (SMILES) | Sleeping time (min) Mean value ± standard deviation [1, 2] [min] | Sleeping time (min) Mean value ± standard deviation [1, 3] [min] |
| --- | --- | --- | --- |
| 198 to 200 °C | COc1cccc(C(=O)Nc2nc(-c3ccco3)c(C(=O)C3CCOCC3)s2)c1 [Compound 367, N-[4-(2-Furyl)-5-(tetrahydropyran-4-ylcarbonyl)thiazol-2-yl]-3-methoxybenzamide] | 0.10 ± 0.10 |  |
| 255 to 265 °C (dec.) | Cc1ncc(C(=O)Nc2nc(-c3ccco3)c(C(=O)c3ccccn3)s2)cn1 [Compound 136, N-[4-(2-Furyl)-5-(pyridin-2-ylcarbonyl)thiazol-2-yl]-2-methylpyrimidine-5-carboxamide] | 1.89 ± 1.81 |  |
| 182 to 183 °C | O=C(Nc1nc(-c2ccco2)c(C(=O)C2CCOCC2)s1)C1CC1 [Compound 361, N-[4-(2-Furyl)-5-(tetrahydropyran-4-ylcarbonyl)thiazol-2-yl]cyclopropanecarboxamide] | 1.65 ± 1.40 |  |
| 196 to 198 °C | O=C(Nc1nc(-c2ccco2)c(C(=O)C2CCOCC2)s1)c1ccco1 [Compound 416, N-[4-(2-Furyl)-5-(tetrahydropyran-4-ylcarbonyl)thiazol-2-yl]furan-2-carboxamide] | 0.06 ± 0.06 |  |
| 168 to 181 °C | O=C(Nc1nc(-c2ccco2)c(C(=O)C2CCCC2)s1)c1ccncc1 [Compound 336, N-[5-(Cyclopentylcarbonyl)-4-(2-furyl)thiazol-2-yl]pyridine-4-carboxamide] |  | 1.60 ± 1.56 |
| 218 to 227 °C | O=C(Nc1nc(-c2ccco2)c(C(=O)c2ccccn2)s1)c1ccncc1 [Compound 95, N-[4-(2-Furyl)-5-(pyridin-2-ylcarbonyl)thiazol-2-yl]pyridine-4-carboxamide] | 0.45 ± 0.45 |  |
| 222 to 223 °C | N#Cc1ccc(C(=O)Nc2nc(-c3ccco3)c(C(=O)C3CCOCC3)s2)o1 [Compound 420, 5-Cyano-N-[4-(2-furyl)-5-(tetrahydropyran-4-ylcarbonyl)-thiazol-2-yl]furan-2-carboxamide] | 0.00 ± 0.00 |  |
| 131 to 132 °C | O=C(Nc1nc(-c2ccco2)c(C(=O)C2CCOCC2)s1)c1ccc(F)cc1 [Compound 373, 4-Fluoro-N-[4-(2-furyl)-5-(tetrahydropyran-4-ylcarbonyl)-thiazol-2-yl]benzamide] |  | 0.03 ± 0.02 |
